Results taken from patent US9359451B2, “Methods and compositions for treating trauma-hemorrhage using estrogen and derivatives thereof” (THE UAB RESEARCH FOUNDATION, priority 2012, dated 2016).
“Also recorded” adds a separate entry of the source.

Legend:
spinal cord tissue = assay: Spinal cord injury (clip compression): histology and Luxol fast blue; assay type: in vivo, mouse; conditions: 24 h after SCI; for histological alterations of the spinal cord tissue (H&E, histological score): 17β-estradiol 300 μg/kg sc 1 h before, 3 h and 6 h after SCI, ICI 182,780: 500 μg/kg sc 1 h before 17β-estradiol; for myelin structure (Luxol fast blue): ICI 182,780: co-administered with 17β-estradiol
Method: Mice were anaesthetized using chloral hydrate (400 mg/kg body weight) (Genovese 2006). A longitudinal incision was made on the midline of the back, exposing the paravertebral muscles. These muscles were dissected away exposing T5-T8 vertebrae. The spinal cord was exposed via a four-level T6-T7 laminectomy and SCI was produced by extradural compression using an aneurysm clip with a closing force of 24 g. Following surgery, 1 ml of saline was administered subcutaneously in order to replace the blood volume lost during surgery. During the surgery and recovery from anesthesia, the mice were placed on a warm heating pad and covered with a warm towel. […] Food and water were provided to the mice ad libitum. During this time period, the animals' bladders were manually voided twice a day until the mice were able to regain normal bladder function. In all injured groups, the spinal cord was compressed for 1 min. Sham-injured animals were only subjected to laminectomy. […] In the experiments regarding the motor score, the animals from all the experimental groups were observed and treated daily for 9 days after SCI. At different time points (see FIG. 30), the mice (n=10 from each group for each of the 3 time points) were sacrificed in order to evaluate the various parameters as described below. Spinal cord biopsies were taken at 24 hours following trauma. Tissue segments containing the lesion (1 cm on each side of the lesion) were paraffin embedded and cut into 5-μm-thick sections. Tissue sections were deparaffinized with xylene, stained with Haematoxylin/Eosin (H&E) and Luxol Fast Blue staining (used to assess demyelination) and studied using light microscopy (Dialux 22 Leitz). The segments of each spinal cord were evaluated by an experienced histopathologist (RO). Damaged neurons were counted and the histopathologic changes of the gray matter were scored on a 6-point […] 2000): 0, no lesion observed, 1, gray matter contained 1 to 5 eosinophilic neurons; 2, gray matter contained 5 to 10 eosinophilic neurons; 3, gray matter contained more than 10 eosinophilic neurons; 4, small infarction (less than one third of the gray matter area); 5, moderate infarction; (one third to one half of the gray matter area); 6, large infarction (more than half of the gray matter area). The scores from all the sections from each spinal cord were averaged to give a final score for an individual mice. All the histological studies were performed in a blinded fashion.

[1] = system: iNOS, nitrotyrosine, COX-2, Bax and Bcl-2; assay: Spinal cord injury: immunohistochemical localization of nitrotyrosine, iNOS, COX-2, Bax and Bcl-2; assay type: in vivo, mouse; conditions: 24 h after SCI; ICI 182,780: co-administered with 17β-estradiol
Method: Mice were anaesthetized using chloral hydrate (400 mg/kg body weight) (Genovese 2006). A longitudinal incision was made on the midline of the back, exposing the paravertebral muscles. These muscles were dissected away exposing T5-T8 vertebrae. The spinal cord was exposed via a four-level T6-T7 laminectomy and SCI was produced by extradural compression using an aneurysm clip with a closing force of 24 g. Following surgery, 1 ml of saline was administered subcutaneously in order to replace the blood volume lost during surgery. During the surgery and recovery from anesthesia, the mice were placed on a warm heating pad and covered with a warm towel. […] Food and water were provided to the mice ad libitum. During this time period, the animals' bladders were manually voided twice a day until the mice were able to regain normal bladder function. In all injured groups, the spinal cord was compressed for 1 min. Sham-injured animals were only subjected to laminectomy. Mice were randomly allocated into the following groups: (i) saline+SCI group, mice received saline subcutaneously and were subjected to SCI (n=40); […] (v) saline+sham group, mice were subjected to the surgical procedures as above group except that the aneurysm clip was not applied (n=40); […] In the experiments regarding the motor score, the animals from all the experimental groups were observed and treated daily for 9 days after SCI. At different time points (see FIG. 30), the mice (n=10 from each group for each of the 3 time points) were sacrificed in order to evaluate the various parameters as described below. […] After deparaffinization, endogenous peroxidase was quenched with 0.3% (v/v) hydrogen peroxide in 60% (v/v) methanol for 30 min. […] Non-specific adsorption was minimized by incubating the section in 2% (v/v) normal goat serum in PBS for 20 min. Endogenous biotin or avidin binding sites were blocked by sequential incubation for 15 min with biotin and avidin (DBA), respectively. […] Sections were washed with PBS, and incubated with secondary antibody. Specific labeling was detected with a biotin-conjugated goat anti-rabbit IgG and avidin-biotin peroxidase complex (DBA) and counterstained with nuclear fast red. To verify the binding specificity for nitrotyrosine, iNOS, COX-2, Bax, and Bcl-2, some sections were also incubated with only the primary antibody (no secondary) or with only the secondary antibody (no primary). […] Immunocytochemistry photographs (n=5) were assessed by densitometry as previously described (Shea 1994) by using Imaging Densitometer (AxioVision, Zeiss, Milan, Italy) and a computer program.

Row | SMILES | histological alterations of the spinal cord tissue (H&E, histological score) (spinal cord tissue) | myelin structure (Luxol fast blue) (spinal cord tissue) | immunohistochemical expression of Bax [1] | immunohistochemical expression of Bcl-2 [1] | immunostaining for COX-2 [1] | immunostaining for iNOS [1] | immunostaining for nitrotyrosine [1]
1 | C[C@]12CC[C@@H]3c4ccc(O)cc4C[C@@H](CCCCCCCCC[S+]([O-])CCCC(F)(F)C(F)(F)F)[C@H]3[C@@H]1CC[C@@H]2O (some centres unmarked) [ICI 182,780] | significantly blocked the effect of the 17β-estradiol | significantly blocked the effect of the 17β-estradiol | significantly blocked the effect of the 17β-estradiol | significantly blocked the effect of the 17β-estradiol | significantly blocked the effect of the 17β-estradiol | significantly blocked the effect of the 17β-estradiol | significantly blocked the effect of the 17β-estradiol
2 | C[C@]12CC[C@@H]3c4ccc(O)cc4CC[C@H]3[C@@H]1CC[C@@H]2O [17β-estradiol] | significant protection against the SCI-induced histological alteration; also recorded: significant protection from the SCI was observed | myelin degradation was attenuated | reduced the degree of positive staining for Bax; also recorded: significantly inhibited the SCI-induced increase in Bax expression | attenuated the loss of positive staining for Bcl-2; also recorded: significantly prevents the loss of Bcl-2 expression | reduced the degree of positive staining for COX-2; also recorded: marked reduction in the immunostaining for COX-2 | reduced the degree of positive staining for iNOS; also recorded: marked reduction in the immunostaining | reduced the degree of positive staining for nitrotyrosine; also recorded: marked reduction in the immunostaining
